Experimental data published in patent US20160251332A1, “Herbicidal Compounds” (SYNGENTA PARTICIPATIONS AG, priority 2013, published 2016).

What follows are molecules tested on Alopecurus myosuroides (assay: Pre-emergence herbicidal activity, ALOMY). Conditions: Application pre-emergence, 1000 g/Ha, evaluated after 13 days, scale 0-5.
Format: in vivo
Description: (§1) Seeds of a variety of test species were sown in standard soil in pots. After cultivation for one day (pre-emergence) under controlled conditions in a glasshouse (at 24/16° C., day/night; 14 hours light; 65% humidity), the plants were sprayed with an aqueous spray solution derived from the formulation of the technical active ingredient in acetone/water (50:50) solution containing 0.5% Tween 20 (polyoxyethelyene sorbitan monolaurate, CAS RN 9005-64-5). The test plants were then grown in a glasshouse under controlled conditions (at 24/16° C., day/night; 14 hours light; 65% humidity) and watered twice daily. After 13 days, the test was evaluated (5=total damage to plant; 0=no damage to plant).

Row | Structure (SMILES) | ALOMY damage score
1 | CN1CC(O)N(c2cc(C(F)(F)F)c(-c3cccc(C#N)c3)cn2)C1=O (centres unmarked) [Compound A17] | 4

What follows are molecules tested on Setaria faberi (assay: Pre-emergence herbicidal activity, SETFA). Conditions: Application pre-emergence, 1000 g/Ha, evaluated after 13 days, scale 0-5.
Format: in vivo
Description: as §1

Row | Structure (SMILES) | SETFA damage score
2 | CN1CC(O)N(c2cc(C(F)(F)F)c(-c3cccc(C#N)c3)cn2)C1=O (centres unmarked) [Compound A17] | 4
3 | COc1cncc(-c2cnc(N3C(=O)N(C)CC3O)cc2C(F)(F)F)c1 (centres unmarked) [Compound A33] | 3
4 | COc1cc(-c2cnc(N3C(=O)N(C)CC3O)cc2C(F)(F)F)ccn1 (centres unmarked) [Compound A24] | 5
5 | CN1CC(O)N(c2cc(C(F)(F)F)c(-c3cnc(C#N)nc3)cn2)C1=O (centres unmarked) [Compound A27] | 2

Each molecule was assayed on Setaria faberi (assay: Post-emergence herbicidal activity, SETFA). Conditions: Application post-emergence, 1000 g/Ha, evaluated after 13 days, scale 0-5.
Format: in vivo
Description: (§2) Seeds of a variety of test species were sown in standard soil in pots. After 8 days cultivation (post-emergence) under controlled conditions in a glasshouse (at 24/16° C., day/night; 14 hours light; 65% humidity), the plants were sprayed with an aqueous spray solution derived from the formulation of the technical active ingredient in acetone/water (50:50) solution containing 0.5% Tween 20 (polyoxyethelyene sorbitan monolaurate, CAS RN 9005-64-5). The test plants were then grown in a glasshouse under controlled conditions (at 24/16° C., day/night; 14 hours light; 65% humidity) and watered twice daily. After 13 days, the test was evaluated (5=total damage to plant; 0=no damage to plant).

Row | Structure (SMILES) | SETFA damage score
6 | CN1CC(O)N(c2cc(C(F)(F)F)c(-c3cccc(C#N)c3)cn2)C1=O (centres unmarked) [Compound A17] | 5
7 | COc1cncc(-c2cnc(N3C(=O)N(C)CC3O)cc2C(F)(F)F)c1 (centres unmarked) [Compound A33] | 5
8 | COc1cc(-c2cnc(N3C(=O)N(C)CC3O)cc2C(F)(F)F)ccn1 (centres unmarked) [Compound A24] | 5
9 | CN1CC(O)N(c2cc(C(F)(F)F)c(-c3cnc(C#N)nc3)cn2)C1=O (centres unmarked) [Compound A27] | 3

What follows are molecules tested on Echinochloa crus-galli (assay: Pre-emergence herbicidal activity, ECHCG). Conditions: Application pre-emergence, 1000 g/Ha, evaluated after 13 days, scale 0-5.
Format: in vivo
Description: as §1

Row | Structure (SMILES) | ECHCG damage score
10 | CN1CC(O)N(c2cc(C(F)(F)F)c(-c3cccc(C#N)c3)cn2)C1=O (centres unmarked) [Compound A17] | 5
11 | COc1cncc(-c2cnc(N3C(=O)N(C)CC3O)cc2C(F)(F)F)c1 (centres unmarked) [Compound A33] | 4
12 | COc1cc(-c2cnc(N3C(=O)N(C)CC3O)cc2C(F)(F)F)ccn1 (centres unmarked) [Compound A24] | 5
13 | CN1CC(O)N(c2cc(C(F)(F)F)c(-c3cnc(C#N)nc3)cn2)C1=O (centres unmarked) [Compound A27] | 3

The molecules below were run on Zea mays (assay: Post-emergence herbicidal activity, ZEAMX). Conditions: Application post-emergence, 1000 g/Ha, evaluated after 13 days, scale 0-5.
Format: in vivo
Description: as §2

Row | Structure (SMILES) | ZEAMX damage score
14 | COc1cncc(-c2cnc(N3C(=O)N(C)CC3O)cc2C(F)(F)F)c1 (centres unmarked) [Compound A33] | 4
15 | COc1cc(-c2cnc(N3C(=O)N(C)CC3O)cc2C(F)(F)F)ccn1 (centres unmarked) [Compound A24] | 5
16 | CN1CC(O)N(c2cc(C(F)(F)F)c(-c3cnc(C#N)nc3)cn2)C1=O (centres unmarked) [Compound A27] | 3

What follows are molecules tested on Abutilon theophrasti (assay: Pre-emergence herbicidal activity, ABUTH). Conditions: Application pre-emergence, 1000 g/Ha, evaluated after 13 days, scale 0-5.
Format: in vivo
Description: as §1

Row | Structure (SMILES) | ABUTH damage score
17 | CN1CC(O)N(c2cc(C(F)(F)F)c(-c3cccc(C#N)c3)cn2)C1=O (centres unmarked) [Compound A17] | 5
18 | COc1cncc(-c2cnc(N3C(=O)N(C)CC3O)cc2C(F)(F)F)c1 (centres unmarked) [Compound A33] | 5
19 | COc1cc(-c2cnc(N3C(=O)N(C)CC3O)cc2C(F)(F)F)ccn1 (centres unmarked) [Compound A24] | 5
20 | CN1CC(O)N(c2cc(C(F)(F)F)c(-c3cnc(C#N)nc3)cn2)C1=O (centres unmarked) [Compound A27] | 5

What follows are molecules tested on Amaranthus retroflexus (assay: Post-emergence herbicidal activity, AMARE). Conditions: Application post-emergence, 1000 g/Ha, evaluated after 13 days, scale 0-5.
Format: in vivo
Description: as §2

Row | Structure (SMILES) | AMARE damage score
21 | CN1CC(O)N(c2cc(C(F)(F)F)c(-c3cccc(C#N)c3)cn2)C1=O (centres unmarked) [Compound A17] | 5
22 | COc1cncc(-c2cnc(N3C(=O)N(C)CC3O)cc2C(F)(F)F)c1 (centres unmarked) [Compound A33] | 5
23 | COc1cc(-c2cnc(N3C(=O)N(C)CC3O)cc2C(F)(F)F)ccn1 (centres unmarked) [Compound A24] | 5
24 | CN1CC(O)N(c2cc(C(F)(F)F)c(-c3cnc(C#N)nc3)cn2)C1=O (centres unmarked) [Compound A27] | 5

These molecules were tested on Zea mays (assay: Pre-emergence herbicidal activity, ZEAMX). Conditions: Application pre-emergence, 1000 g/Ha, evaluated after 13 days, scale 0-5.
Format: in vivo
Description: as §1

Row | Structure (SMILES) | ZEAMX damage score
25 | CN1CC(O)N(c2cc(C(F)(F)F)c(-c3cccc(C#N)c3)cn2)C1=O (centres unmarked) [Compound A17] | 2
26 | COc1cncc(-c2cnc(N3C(=O)N(C)CC3O)cc2C(F)(F)F)c1 (centres unmarked) [Compound A33] | 2
27 | COc1cc(-c2cnc(N3C(=O)N(C)CC3O)cc2C(F)(F)F)ccn1 (centres unmarked) [Compound A24] | 2
28 | CN1CC(O)N(c2cc(C(F)(F)F)c(-c3cnc(C#N)nc3)cn2)C1=O (centres unmarked) [Compound A27] | 1

What follows are molecules tested on Abutilon theophrasti (assay: Post-emergence herbicidal activity, ABUTH). Conditions: Application post-emergence, 1000 g/Ha, evaluated after 13 days, scale 0-5.
Format: in vivo
Description: as §2

Row | Structure (SMILES) | ABUTH damage score
29 | CN1CC(O)N(c2cc(C(F)(F)F)c(-c3cccc(C#N)c3)cn2)C1=O (centres unmarked) [Compound A17] | 5
30 | COc1cncc(-c2cnc(N3C(=O)N(C)CC3O)cc2C(F)(F)F)c1 (centres unmarked) [Compound A33] | 5
31 | COc1cc(-c2cnc(N3C(=O)N(C)CC3O)cc2C(F)(F)F)ccn1 (centres unmarked) [Compound A24] | 5
32 | CN1CC(O)N(c2cc(C(F)(F)F)c(-c3cnc(C#N)nc3)cn2)C1=O (centres unmarked) [Compound A27] | 5

What follows are molecules tested on Echinochloa crus-galli (assay: Post-emergence herbicidal activity, ECHCG). Conditions: Application post-emergence, 1000 g/Ha, evaluated after 13 days, scale 0-5.
Format: in vivo
Description: as §2

Row | Structure (SMILES) | ECHCG damage score
33 | CN1CC(O)N(c2cc(C(F)(F)F)c(-c3cccc(C#N)c3)cn2)C1=O (centres unmarked) [Compound A17] | 5
34 | COc1cncc(-c2cnc(N3C(=O)N(C)CC3O)cc2C(F)(F)F)c1 (centres unmarked) [Compound A33] | 5
35 | COc1cc(-c2cnc(N3C(=O)N(C)CC3O)cc2C(F)(F)F)ccn1 (centres unmarked) [Compound A24] | 5
36 | CN1CC(O)N(c2cc(C(F)(F)F)c(-c3cnc(C#N)nc3)cn2)C1=O (centres unmarked) [Compound A27] | 5

These molecules were tested on Amaranthus retroflexus (assay: Pre-emergence herbicidal activity, AMARE). Conditions: Application pre-emergence, 1000 g/Ha, evaluated after 13 days, scale 0-5.
Format: in vivo
Description: as §1

Row | Structure (SMILES) | AMARE damage score
37 | CN1CC(O)N(c2cc(C(F)(F)F)c(-c3cccc(C#N)c3)cn2)C1=O (centres unmarked) [Compound A17] | 5
38 | COc1cncc(-c2cnc(N3C(=O)N(C)CC3O)cc2C(F)(F)F)c1 (centres unmarked) [Compound A33] | 5
39 | COc1cc(-c2cnc(N3C(=O)N(C)CC3O)cc2C(F)(F)F)ccn1 (centres unmarked) [Compound A24] | 5
40 | CN1CC(O)N(c2cc(C(F)(F)F)c(-c3cnc(C#N)nc3)cn2)C1=O (centres unmarked) [Compound A27] | 5

Each molecule was assayed on Alopecurus myosuroides (assay: Post-emergence herbicidal activity, ALOMY). Conditions: Application post-emergence, 1000 g/Ha, evaluated after 13 days, scale 0-5.
Format: in vivo
Description: as §2

Row | Structure (SMILES) | ALOMY damage score
41 | CN1CC(O)N(c2cc(C(F)(F)F)c(-c3cccc(C#N)c3)cn2)C1=O (centres unmarked) [Compound A17] | 5
